Test system: NCI-H23 complex spheroids with HUVEC/MSC, viability
Assay: Anticancer human tumor NCI-H23 cell line growth inhibition [RAS];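 also: spheroids exposed to compound for 7 days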;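 as to viability, T/C: 100% = DMSO vehicle control viability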
Conditions: for IC50: curve of first compound; for viability, T/C: stronger effect = lower value
Procedure, shortened: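 Multi-cell-type spheroids: tumor cells plus HUVEC endothelial cells and mesenchymal stem cells. RAS-pathway inhibitors were combined with targeted agents, each dosed in half-log steps down from clinical Cmax, or from 10 microM when Cmax was unknown.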

[1] = second compound 0.000949 µM, first compound 0.00316 µM
[2] = second compound 0.000949 µM, first compound 0.01 µM
[3] = second compound 0.000949 µM, first compound 0.0316 µM
[4] = second compound 0.000949 µM, first compound 0.1 µM
[5] = second compound 0.000949 µM, first compound 0.316 µM
[6] = second compound 0.000949 µM, first compound 1 µM
[7] = second compound 0.003 µM, first compound 0.00316 µM
[8] = second compound 0.003 µM, first compound 0.01 µM
[9] = second compound 0.003 µM, first compound 0.0316 µM
[10] = second compound 0.003 µM, first compound 0.1 µM
[11] = second compound 0.003 µM, first compound 0.316 µM
[12] = second compound 0.003 µM, first compound 1 µM
[13] = second compound 0.00949 µM, first compound 0.00316 µM
[14] = second compound 0.00949 µM, first compound 0.01 µM
[15] = second compound 0.00949 µM, first compound 0.0316 µM
[16] = second compound 0.00949 µM, first compound 0.1 µM
[17] = second compound 0.00949 µM, first compound 0.316 µM
[18] = second compound 0.00949 µM, first compound 1 µM
[19] = second compound 0.03 µM, first compound 0.00316 µM
[20] = second compound 0.03 µM, first compound 0.01 µM
[21] = second compound 0.03 µM, first compound 0.0316 µM
[22] = second compound 0.03 µM, first compound 0.1 µM
[23] = second compound 0.03 µM, first compound 0.316 µM
[24] = second compound 0.03 µM, first compound 1 µM
[25] = second compound 0.0949 µM, first compound 0.00316 µM
[26] = second compound 0.0949 µM, first compound 0.01 µM
[27] = second compound 0.0949 µM, first compound 0.0316 µM
[28] = second compound 0.0949 µM, first compound 0.1 µM
[29] = second compound 0.0949 µM, first compound 0.316 µM
[30] = second compound 0.0949 µM, first compound 1 µM
[31] = second compound 0.3 µM, first compound 0.00316 µM
[32] = second compound 0.3 µM, first compound 0.01 µM
[33] = second compound 0.3 µM, first compound 0.0316 µM
[34] = second compound 0.3 µM, first compound 0.1 µM
[35] = second compound 0.3 µM, first compound 0.316 µM
[36] = second compound 0.3 µM, first compound 1 µM

## C=CC(=O)Nc1cc(Nc2nccc(-c3cn(C)c4ccccc34)n2)c(OC)cc1N(C)CCN(C)C + CCn1c(-c2cc(N3CCN(C)CC3)cnc2C(C)OC)c2c3cc(ccc31)-c1csc(n1)CC(NC(=O)C1CC1C)C(=O)N1CCCC(N1)C(=O)OCC(C)(C)C2
Second compound 0.000949 µM
  IC50: < 3.16 nM
Second compound 0.003 µM
  IC50: < 3.16 nM
Second compound 0.00949 µM
  IC50: < 3.16 nM
Second compound 0.03 µM
  IC50: < 3.16 nM
Second compound 0.0949 µM
  IC50: < 3.16 nM
Second compound 0.3 µM
  IC50: < 3.16 nM
[1]
  viability, T/C: 51.5%
[2]
  viability, T/C: 45.7%
[3]
  viability, T/C: 34.4%
[4]
  viability, T/C: 50.4%
[5]
  viability, T/C: 31.4%
[6]
  viability, T/C: 27.6%
[7]
  viability, T/C: 35.8%
[8]
  viability, T/C: 32.6%
[9]
  viability, T/C: 30.1%
[10]
  viability, T/C: 29.8%
[11]
  viability, T/C: 27.1%
[12]
  viability, T/C: 19%
[13]
  viability, T/C: 30.7%
[14]
  viability, T/C: 27.9%
[15]
  viability, T/C: 29.3%
[16]
  viability, T/C: 25.4%
[17]
  viability, T/C: 22.1%
[18]
  viability, T/C: 15.6%
[19]
  viability, T/C: 27.5%
[20]
  viability, T/C: 23.6%
[21]
  viability, T/C: 29.1%
[22]
  viability, T/C: 25%
[23]
  viability, T/C: 17.5%
[24]
  viability, T/C: 15%
[25]
  viability, T/C: 18.7%
[26]
  viability, T/C: 19.6%
[27]
  viability, T/C: 22.2%
[28]
  viability, T/C: 16.4%
[29]
  viability, T/C: 8.97%
[30]
  viability, T/C: 12.2%
[31]
  viability, T/C: 16.5%
[32]
  viability, T/C: 18.1%
[33]
  viability, T/C: 17.2%
[34]
  viability, T/C: 12.3%
[35]
  viability, T/C: 10.5%
[36]
  viability, T/C: 11.8%

## CC(Nc1ccc2c(c1)OCCn1cc(N3C(=O)OCC3C(F)F)nc1-2)C(N)=O (stereo unspecified) + CCn1c(-c2cc(N3CCN(C)CC3)cnc2C(C)OC)c2c3cc(ccc31)-c1csc(n1)CC(NC(=O)C1CC1C)C(=O)N1CCCC(N1)C(=O)OCC(C)(C)C2
Second compound 0.000949 µM
  IC50: < 31.6 nM
Second compound 0.003 µM
  IC50: < 31.6 nM
Second compound 0.00949 µM
  IC50: < 31.6 nM
Second compound 0.03 µM
  IC50: < 31.6 nM
Second compound 0.0949 µM
  IC50: < 31.6 nM
Second compound 0.3 µM
  IC50: < 31.6 nM
[3]
  viability, T/C: 38.9%
[4]
  viability, T/C: 34.7%
[5]
  viability, T/C: 29.4%
[6]
  viability, T/C: 35.1%
Second compound 0.000949 µM, first compound 3.16 µM
  viability, T/C: 33.6%
Second compound 0.000949 µM, first compound 10 µM
  viability, T/C: 21.6%
[9]
  viability, T/C: 34.9%
[10]
  viability, T/C: 24.6%
[11]
  viability, T/C: 25.3%
[12]
  viability, T/C: 25.1%
Second compound 0.003 µM, first compound 3.16 µM
  viability, T/C: 23.1%
Second compound 0.003 µM, first compound 10 µM
  viability, T/C: 17.6%
[15]
  viability, T/C: 31.1%
[16]
  viability, T/C: 24.5%
[17]
  viability, T/C: 21.1%
[18]
  viability, T/C: 22.5%
Second compound 0.00949 µM, first compound 3.16 µM
  viability, T/C: 23.3%
Second compound 0.00949 µM, first compound 10 µM
  viability, T/C: 16.7%
[21]
  viability, T/C: 25.5%
[22]
  viability, T/C: 19.6%
[23]
  viability, T/C: 19%
[24]
  viability, T/C: 19.2%
Second compound 0.03 µM, first compound 3.16 µM
  viability, T/C: 13.9%
Second compound 0.03 µM, first compound 10 µM
  viability, T/C: 14.5%
[27]
  viability, T/C: 16.9%
[28]
  viability, T/C: 14.9%
[29]
  viability, T/C: 13.6%
[30]
  viability, T/C: 15.2%
Second compound 0.0949 µM, first compound 3.16 µM
  viability, T/C: 10%
Second compound 0.0949 µM, first compound 10 µM
  viability, T/C: 10.8%
[33]
  viability, T/C: 14%
[34]
  viability, T/C: 13.3%
[35]
  viability, T/C: 12.8%
[36]
  viability, T/C: 13%
Second compound 0.3 µM, first compound 3.16 µM
  viability, T/C: 11.9%
Second compound 0.3 µM, first compound 10 µM
  viability, T/C: 11.4%

## O=C(c1ccc(F)c(F)c1Nc1ccc(I)cc1F)N1CC(O)([C@@H]2CCCCN2)C1 + CCn1c(-c2cc(N3CCN(C)CC3)cnc2C(C)OC)c2c3cc(ccc31)-c1csc(n1)CC(NC(=O)C1CC1C)C(=O)N1CCCC(N1)C(=O)OCC(C)(C)C2
Second compound 0.000949 µM
  IC50: < 3.16 nM
Second compound 0.003 µM
  IC50: < 3.16 nM
Second compound 0.00949 µM
  IC50: < 3.16 nM
Second compound 0.03 µM
  IC50: < 3.16 nM
Second compound 0.0949 µM
  IC50: < 3.16 nM
Second compound 0.3 µM
  IC50: < 3.16 nM
[1]
  viability, T/C: 40.8%
[2]
  viability, T/C: 42.1%
[3]
  viability, T/C: 30.3%
[4]
  viability, T/C: 27.7%
[5]
  viability, T/C: 14.7%
[6]
  viability, T/C: 7.09%
[7]
  viability, T/C: 31.5%
[8]
  viability, T/C: 33.4%
[9]
  viability, T/C: 22.9%
[10]
  viability, T/C: 20.1%
[11]
  viability, T/C: 10.2%
[12]
  viability, T/C: 5.97%
[13]
  viability, T/C: 33.3%
[14]
  viability, T/C: 20.2%
[15]
  viability, T/C: 19%
[16]
  viability, T/C: 10.2%
[17]
  viability, T/C: 5.94%
[18]
  viability, T/C: 5.43%
[19]
  viability, T/C: 24%
[20]
  viability, T/C: 15.2%
[21]
  viability, T/C: 10.5%
[22]
  viability, T/C: 7.97%
[23]
  viability, T/C: 5.26%
[24]
  viability, T/C: 5.71%
[25]
  viability, T/C: 16.1%
[26]
  viability, T/C: 11.9%
[27]
  viability, T/C: 8.79%
[28]
  viability, T/C: 6.35%
[29]
  viability, T/C: 5.88%
[30]
  viability, T/C: 5.06%
[31]
  viability, T/C: 12.4%
[32]
  viability, T/C: 9.36%
[33]
  viability, T/C: 8.61%
[34]
  viability, T/C: 5.57%
[35]
  viability, T/C: 5.66%
[36]
  viability, T/C: 6.36%

Source: PubChem BioAssay AID2060885 (Molecular Pharmacology Branch, DTP, NCI, 2025)
